Assay type in all cases: cell-based
One assay concerns MRC-5 cell line. As to the kind of experiment: Cell viability assay for MRC-5 cell line (EZ-Cytox). As to conditions: Homo sapiens, MRC5, 120 h; MRC-5 normal cell line, 5 days, 10000 nM to 1.52 nM; read-out: Activity: IC50 value, cell viability, MRC-5 cell line (Exemplary Compounds). The method, then: 4. Cell Viability Assay for MRC-5 Cell Line
(1) Culture of MRC-5 Cell Line
The MRC-5 cell line was purchased from KCLB. Passage of cultured cells was maintained within P15.
(2) Treatment of Compounds of the Present Invention
Then, it was cultured in 37° C. CO2 incubator (Thermo Fisher Scientific) for 5 days.
(3) Cytotoxicity Experiment
CO2 incubator for 4 hours.

The target in the next assay is T1, PLK1 (Homo sapiens, UniProt P53350).
T1 construct: endogenous in cells; host or cells: HeLa LgBit (Plk1-HiBit KI): HeLa stably expressing LgBit, with a CRISPR/Cas9 knock-in of HiBit at the endogenous PLK1 locus
T1 sequence (P53350 whole entry): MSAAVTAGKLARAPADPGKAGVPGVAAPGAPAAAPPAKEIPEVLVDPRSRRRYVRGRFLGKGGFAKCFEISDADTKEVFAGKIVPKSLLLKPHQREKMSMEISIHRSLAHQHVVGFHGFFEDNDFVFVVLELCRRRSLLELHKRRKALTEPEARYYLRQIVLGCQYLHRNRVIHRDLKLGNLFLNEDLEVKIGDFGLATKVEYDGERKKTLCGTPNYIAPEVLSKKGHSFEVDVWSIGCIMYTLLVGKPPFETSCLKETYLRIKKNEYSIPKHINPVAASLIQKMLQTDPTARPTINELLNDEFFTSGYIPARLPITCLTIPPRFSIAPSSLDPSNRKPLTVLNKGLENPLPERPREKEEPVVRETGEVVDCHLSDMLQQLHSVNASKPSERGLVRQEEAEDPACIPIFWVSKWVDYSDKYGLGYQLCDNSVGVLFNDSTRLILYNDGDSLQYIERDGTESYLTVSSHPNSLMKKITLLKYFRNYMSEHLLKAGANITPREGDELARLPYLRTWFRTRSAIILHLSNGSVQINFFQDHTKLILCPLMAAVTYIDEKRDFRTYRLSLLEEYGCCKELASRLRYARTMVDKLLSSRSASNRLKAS
As to the kind of experiment: Luciferase assay for PLK1 in HeLa LgBit (Plk1-HiBit KI) cell line. As to conditions: 300 nM compound, luminescence after 9 hours. The method, boiled down:
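Compounds (300 nM) were added with Endurazine to thymidine-synchronised cells (2 mM, 24 h block, then release and 18 h culture), and luminescence at 470-480 nm was followed live. Cells: HeLa stably expressing LgBit, HiBit knocked into native PLK1 C-terminus. Value: luminescence ratio versus DMSO control.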
(The HiBiT peptide binds its large partner to form an active luciferase.)

For another assay, the system named is NCI-H69 cell line. As to the kind of experiment: Cell viability assay for NCI-H69 cell line (EZ-Cytox). As to conditions: Homo sapiens, NCI-H69, 120 h; H69 cells, 5 days, 3000 nM to 0.46 nM. The gist of the method: (§1)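 IC50 values are binned (A: <30 nM, B: <50 nM, C: <100 nM, D: <200 nM, E: <400 nM) from EZ-Cytox read-outs. Cells were exposed to compound for 5 days, then shaken 3 min and absorbance taken at […].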

The next assay has as its system NCI-H526 cell line. As to the kind of experiment: Cell viability assay for NCI-H526 cell line (EZ-Cytox). As to conditions: Homo sapiens, NCI-H526, 120 h; H526 cells, 5 days, 3000 nM to 0.46 nM. The method, boiled down:
as §1

`COc1cc(C(=O)NC2CCN(CCN3CCN(c4cc(OC)c(NC5CCC(=O)NC5=O)cc4F)CC3)CC2)ccc1Nc1ncc2c(n1)N(C1CCCC1)CC(F)(F)C(=O)N2C` (stereo not drawn) [Compound 48, 4-((9-cyclopentyl-7,7-difluoro-5-methyl-6-oxo-6,7,8,9-tetrahydro-5H-pyrimido[4,5-b][1,4]diazepin-2-yl)amino)-N-(1-(2-(4-(4-((2,6-dioxopiperidin-3-yl)amino)-2-fluoro-5-methoxyphenyl)piperazin-1-yl)ethyl)piperidin-4-yl)-3-methoxybenzamide]: the IC50 (as a rule, the midpoint of a concentration-inhibition curve) in the assay on MRC-5 cell line was over 10000 nM; in the assay with NCI-H69 cell line, under 50 nM; in the assay with NCI-H526 cell line, under 30 nM. Further, at PLK1, the “Activity: ratio of the luminescence value of compound treatment group to DMSO treatment group” value (from here on “Activity: ratio”) is on record as “++ (++: <0.5)”.

For the compound `COc1cc(C(=O)NC2CCN(CCN3CCN(c4cc(OC)c(NC5CCC(=O)NC5=O)cc4F)CC3)CC2)c(F)cc1Nc1ncc2c(n1)N(C1CCCC1)CC(F)(F)C(=O)N2C` (stereo not drawn) [Compound 49, 4-((9-cyclopentyl-7,7-difluoro-5-methyl-6-oxo-6,7,8,9-tetrahydro-5H-pyrimido[4,5-b][1,4]diazepin-2-yl)amino)-N-(1-(2-(4-(4-((2,6-dioxopiperidin-3-yl)amino)-2-fluoro-5-methoxyphenyl)piperazin-1-yl)ethyl)piperidin-4-yl)-2-fluoro-5-methoxybenz amide], the IC50 was over 10000 nM with MRC-5 cell line, under 50 nM in the assay on NCI-H69 cell line and under 30 nM in the assay on NCI-H526 cell line. Further, the “Activity: ratio” value at PLK1 is “++ (++: <0.5)”.

As to `COc1cc(C(=O)NC2CCN(CCC3CCN(c4cc(OC)c(NC5CCC(=O)NC5=O)cc4F)CC3)CC2)c(F)cc1Nc1ncc2c(n1)N(C(C)C)CC(F)(F)C(=O)N2C` (stereo not drawn) [Compound 50, 4-((7,7-difluoro-9-isopropyl-5-methyl-6-oxo-6,7,8,9-tetrahydro-5H-pyrimido[4,5-b][1,4]diazepin-2-yl)amino)-N-(1-(2-(1-(4-((2,6-dioxopiperidin-3-yl)amino)-2-fluoro-5-methoxyphenyl)piperidin-4-yl)ethyl)piperidin-4-yl)-2-fluoro-5-methoxybenzamide], the results for the IC50 in the assay on MRC-5 cell line, in the assay with NCI-H69 cell line and with NCI-H526 cell line were over 10000 nM, under 100 nM and under 50 nM, respectively. Also, at PLK1, the “Activity: ratio” value is given as “++ (++: <0.5)”.

Consider `COc1cc(C(=O)NC2CC3(CCN(CC4CCN(c5cc(OC)c(NC6CCC(=O)NC6=O)cc5F)CC4)CC3)C2)ccc1Nc1ncc2c(n1)N(C1CCCC1)CC(F)(F)C(=O)N2C` (stereo not drawn) [Compound 51, 4-((9-cyclopentyl-7,7-difluoro-5-methyl-6-oxo-6,7,8,9-tetrahydro-5H-pyrimido[4,5-b][1,4]diazepin-2-yl)amino)-N-(7-((1-(4-((2,6-dioxopiperidin-3-yl)amino)-2-fluoro-5-methoxyphenyl)piperidin-4-yl)methyl)-7-azaspiro[3.5]nonan-2-yl)-3-methoxybenzamide], for which the IC50 with MRC-5 cell line is over 10000 nM; with NCI-H69 cell line, under 30 nM; in the assay with NCI-H526 cell line, under 30 nM. Besides, the “Activity: ratio” value on PLK1 is recorded as “+++ (+++: <0.3)”.

Take `COc1cc(C(=O)NC2CC3(CCN(CC4CCN(c5cc(OC)c(NC6CCC(=O)NC6=O)cc5F)CC4)CC3)C2)c(F)cc1Nc1ncc2c(n1)N(C(C)C)CC(F)(F)C(=O)N2C` (stereo not drawn) [Compound 52, 4-((7,7-difluoro-9-isopropyl-5-methyl-6-oxo-6,7,8,9-tetrahydro-5H-pyrimido[4,5-b][1,4]diazepin-2-yl)amino)-N-(7-((1-(4-((2,6-dioxopiperidin-3-yl)amino)-2-fluoro-5-methoxyphenyl)piperidin-4-yl)methyl)-7-azaspiro[3.5]nonan-2-yl)-2-fluoro-5-methoxybenzamide]: the IC50 is over 10000 nM with MRC-5 cell line, under 30 nM in the assay with NCI-H69 cell line and under 30 nM in the assay with NCI-H526 cell line. At PLK1, the “Activity: ratio” value is reported as “++ (++: <0.5)”.

As for `COc1cc(C(=O)NC2CC3(CCN(CC4CCN(c5cc(OC)c(NC6CCC(=O)NC6=O)cc5F)CC4)CC3)C2)ncc1Nc1ncc2c(n1)N(C(C)C)CC(F)(F)C(=O)N2C` (stereo not drawn) [Compound 53, 5-((7,7-difluoro-9-isopropyl-5-methyl-6-oxo-6,7,8,9-tetrahydro-5H-pyrimido[4,5-b][1,4]diazepin-2-yl)amino)-N-(7-((1-(4-((2,6-dioxopiperidin-3-yl)amino)-2-fluoro-5-methoxyphenyl)piperidin-4-yl)methyl)-7-azaspiro[3.5]nonan-2-yl)-4-methoxypicolinamide], the IC50 with MRC-5 cell line is over 10000 nM; in the assay with NCI-H69 cell line it was under 50 nM; in the assay with NCI-H526 cell line, under 30 nM. Further, at PLK1, the “Activity: ratio” value is reported as “++ (++: <0.5)”.

With `COc1cc(C(=O)NN2CCC(CCN3CCN(c4ccc(NC5CCC(=O)NC5=O)c(OC)c4F)CC3)CC2)ccc1Nc1ncc2c(n1)N(C1CCCC1)CC(F)(F)C(=O)N2C` (stereo not drawn) [Compound 54, 4-((9-cyclopentyl-7,7-difluoro-5-methyl-6-oxo-6,7,8,9-tetrahydro-5H-pyrimido[4,5-b][1,4]diazepin-2-yl)amino)-N-(4-(2-(4-(4-((2,6-dioxopiperidin-3-yl)amino)-2-fluoro-3-methoxyphenyl)piperazin-1-yl)ethyl)piperidin-1-yl)-3-methoxybenzamide], the IC50 in the assay on MRC-5 cell line was over 10000 nM; in the assay on NCI-H69 cell line, under 30 nM; in the assay with NCI-H526 cell line it was under 30 nM. Besides, on PLK1, the “Activity: ratio” value was “+++ (+++: <0.3)”.

As for `COc1cc(C(=O)NN2CCC(CCN3CCN(c4ccc(NC5CCC(=O)NC5=O)c(F)c4OC)CC3)CC2)ccc1Nc1ncc2c(n1)N(C1CCCC1)CC(F)(F)C(=O)N2C` (stereo not drawn) [Compound 55, 4-((9-cyclopentyl-7,7-difluoro-5-methyl-6-oxo-6,7,8,9-tetrahydro-5H-pyrimido[4,5-b][1,4]diazepin-2-yl)amino)-N-(4-(2-(4-(4-((2,6-dioxopiperidin-3-yl)amino)-3-fluoro-2-methoxyphenyl)piperazin-1-yl)ethyl)piperidin-1-yl)-3-methoxybenzamide], the IC50 in the assay with MRC-5 cell line was over 10000 nM; with NCI-H69 cell line, under 30 nM; in the assay on NCI-H526 cell line, under 30 nM. Further, at PLK1, the “Activity: ratio” value is “+++ (+++: <0.3)”.

In the case of `COc1cc(C(=O)NN2CCC(CCN3CCN(c4cc(F)c(NC5CCC(=O)NC5=O)cc4OC)CC3)CC2)ccc1Nc1ncc2c(n1)N(C1CCCC1)CC(F)(F)C(=O)N2C` (stereo not drawn) [Compound 56, 4-((9-cyclopentyl-7,7-difluoro-5-methyl-6-oxo-6,7,8,9-tetrahydro-5H-pyrimido[4,5-b][1,4]diazepin-2-yl)amino)-N-(4-(2-(4-(4-((2,6-dioxopiperidin-3-yl)amino)-5-fluoro-2-methoxyphenyl)piperazin-1-yl)ethyl)piperidin-1-yl)-3-methoxybenzamide], the figures for the IC50 with MRC-5 cell line, with NCI-H69 cell line and in the assay on NCI-H526 cell line were over 10000 nM, under 30 nM and under 30 nM, respectively. At PLK1, the “Activity: ratio” value is “++ (++: <0.5)”.

As for `COc1cc(C(=O)NN2CCC(CCN3CCN(c4cc(F)c(NC5CCC(=O)NC5=O)cc4F)CC3)CC2)ccc1Nc1ncc2c(n1)N(C1CCCC1)CC(F)(F)C(=O)N2C` (stereo not drawn) [Compound 57, 4-((9-cyclopentyl-7,7-difluoro-5-methyl-6-oxo-6,7,8,9-tetrahydro-5H-pyrimido[4,5-b][1,4]diazepin-2-yl)amino)-N-(4-(2-(4-(4-((2,6-dioxopiperidin-3-yl)amino)-2,5-difluorophenyl)piperazin-1-yl)ethyl)piperidin-1-yl)-3-methoxybenzamide], the IC50 in the assay on MRC-5 cell line was over 10000 nM; in the assay on NCI-H69 cell line it was under 30 nM; in the assay on NCI-H526 cell line, under 30 nM. For the same compound, on PLK1, the “Activity: ratio” value is listed as “+++ (+++: <0.3)”.

Take `COc1cc(C(=O)NN2CCC(CCN3CCN(c4cc(F)c(NC5CCC(=O)NC5=O)cc4F)CC3)CC2)ccc1Nc1ncc2c(n1)N(C(C)C)CC(F)(F)C(=O)N2C` (stereo not drawn) [Compound 58, 4-((7,7-difluoro-9-isopropyl-5-methyl-6-oxo-6,7,8,9-tetrahydro-5H-pyrimido[4,5-b][1,4]diazepin-2-yl)amino)-N-(4-(2-(4-(4-((2,6-dioxopiperidin-3-yl)amino)-2,5-difluorophenyl)piperazin-1-yl)ethyl)piperidin-1-yl)-3-methoxybenzamide]: the IC50 in the assay with MRC-5 cell line was over 10000 nM; in the assay with NCI-H69 cell line, under 30 nM; in the assay on NCI-H526 cell line, under 30 nM. In addition, the “Activity: ratio” value on PLK1 is “+++ (+++: <0.3)”.

`COc1cc(C(=O)NN2CCC(CCN3CCN(c4cc(F)c(NC5CCC(=O)NC5=O)cc4F)CC3)CC2)c(F)cc1Nc1ncc2c(n1)N(C1CCCC1)CC(F)(F)C(=O)N2C` (stereo not drawn) [Compound 59, 4-((9-cyclopentyl-7,7-difluoro-5-methyl-6-oxo-6,7,8,9-tetrahydro-5H-pyrimido[4,5-b][1,4]diazepin-2-yl)amino)-N-(4-(2-(4-(4-((2,6-dioxopiperidin-3-yl)amino)-2,5-difluorophenyl)piperazin-1-yl)ethyl)piperidin-1-yl)-2-fluoro-5-methoxybenzamide]: the values for the IC50 in the assay on MRC-5 cell line, in the assay on NCI-H69 cell line and with NCI-H526 cell line were over 10000 nM, under 50 nM and under 30 nM, respectively. Moreover, the “Activity: ratio” value on PLK1 was “++ (++: <0.5)”.
